Reference: patent publication EP0638079B1, “DEAZAAMINOPTERINS FOR TREATMENT OF INFLAMMATION” (SRI INTERNATIONAL, priority 1992, dated 1993)

Legend:
S. faecium = conditions: folate dependent bacteria; cited from earlier work
L. casei = conditions: folate dependent bacteria; cited from earlier work
[1] = test system: human liver cell line (Chang liver)
DBA/1 mice = test: Type II collagen arthritis mouse model (visual inflammation, rear paw swelling); format: in vivo; conditions: for No Mice on day indicated (visual evidence of inflammation), Day 30 / No Mice on day indicated (visual evidence of inflammation), Day 37 / No Mice on day indicated (visual evidence of inflammation), Day 44 / Ave. thickness of rear paws (mm) over days 30-44, Treated: Table IIA; for No Mice on day indicated (visual evidence of inflammation), Day 30 / No Mice on day indicated (visual evidence of inflammation), Day 37 / No Mice on day indicated (visual evidence of inflammation), Day 44 / No mice affected on day indicated (visual evidence of inflammation), Day 30 / No mice affected on day indicated (visual evidence of inflammation), Day 37 / No mice affected on day indicated (visual evidence of inflammation), Day 44: affected mice/mice in group; for No Mice on day indicated (visual evidence of inflammation), Day 30: dose (mg/kg) per compound as in Dose column; for No Mice on day indicated (visual evidence of inflammation), Day 37 / No Mice on day indicated (visual evidence of inflammation), Day 44 / No mice affected on day indicated (visual evidence of inflammation), Day 30: dose per compound as in Dose column; for Avg. thickness of rear paws (mm) over days 30-44, Treated / No mice affected on day indicated (visual evidence of inflammation), Day 30 / No mice affected on day indicated (visual evidence of inflammation), Day 37 / No mice affected on day indicated (visual evidence of inflammation), Day 44: Table IIB; for Avg. thickness of rear paws (mm) over days 30-44, Treated / Ave. thickness of rear paws (mm) over days 30-44, Treated: caliper
Excerpt: The following data illustrate administration to mice of several deazaaminopterin compounds of the invention and methotrexate in the evaluation of anti-inflammatory activity. The data are presented as two separate observations, the visually observed presence of inflammation in the mouse, and the caliper-measured degree of swelling of the rear paws of the mouse.
The efficacy evaluation used a mouse model of inflammatory disease that occurs in response to an antigenic challenge with Type II collagen [J. S. Courtenay et al., Nature, 283, 666-668 (1980)].
The fundamental aspects of the model allow it to serve as a representative presentation of human disease. The parallels between the known aspects of the mouse model and rheumatoid arthritis include a humoral response in which antibodies are produced to an antigen that is present in the joint tissue and the antigenic challenge is accompanied by cell-mediated aspects of immunity. The resultant inflammation of the joint tissue yields facets of periostitis, synovial lining hyperplasia, degradation of bone and cartilage and pannus and new bone formation.
The basic elements of the model included the immunization of DBA/1 mice with a suspension of fetal bovine Type II collagen (1 mg/ml) prepared in complete Freund's adjuvant. The primary injection was given using 0.1 ml of the collagen emulsion giving a total of 0.1 mg of Type II collagen per mouse. The animals were then given a booster injection of Type II collagen (100 µg in 0.01 M acetic acid ) on day 21 by intraperitoneal injection.
Typically, in this model the untreated positive control animals have an incidence of arthritis ranging from 90 to 100% of injected animals at day 44.
The effect of methotrexate and test compounds on the extent of inflammation was determined by direct analysis of paw swelling using caliper measurements. The results are presented in Table IIA, and show a direct correlation between the decrease in the number of animals having disease and a decrease in the extent of inflammation, as determined by paw swelling. Table IIA […]

[2] = test system: L1210 murine leukemia cells; conditions: cited from earlier work
P388 leukemia = conditions: against P388 leukemia in BDF1 mice; cited from earlier work
L1210 = conditions: against L1210 in BDF1 mice; cited from earlier work
[3] = molecular target: T1, bovine liver dihydrofolate reductase (Bos taurus, UniProt P00376); conditions: cited from earlier work
T1 construct: host or cells: bovine liver
T1 sequence (P00376 1-187): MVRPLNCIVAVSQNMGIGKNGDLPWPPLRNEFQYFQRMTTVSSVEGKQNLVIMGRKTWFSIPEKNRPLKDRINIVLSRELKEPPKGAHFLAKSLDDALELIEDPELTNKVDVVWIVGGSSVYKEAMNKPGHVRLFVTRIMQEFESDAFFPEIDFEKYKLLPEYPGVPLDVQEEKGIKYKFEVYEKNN

[4] = 30 day measurement (first value)
[5] = 44 day measurement (second value)

| SMILES | Ratio Of Cytotoxic Potency Versus Methotrexate For Inhibition Of Human Liver Cell Growth In Culture [1] | No Mice on day indicated (visual evidence of inflammation), Day 30 (DBA/1 mice) | No Mice on day indicated (visual evidence of inflammation), Day 37 (DBA/1 mice) | No Mice on day indicated (visual evidence of inflammation), Day 44 (DBA/1 mice) | also measured |
| --- | --- | --- | --- | --- | --- |
| Nc1nc(N)c2cc(CCc3ccc(C(=O)NC(CCC(=O)O)C(=O)O)cc3)cnc2n1 (stereo not drawn) [5,10-Dideazaaminopterin] | 2.46 |  |  |  | growth inhibition (S. faecium): effective growth inhibitor; growth inhibition (L. casei): effective growth inhibitor |
| CCc1c(CN(C)c2ccc(C(=O)NC(CCC(=O)O)C(=O)O)cc2)cnc2nc(N)nc(N)c12 (stereo not drawn) [5-Et-10-Me (5-Et-5-DMTX)] | 3.18 | 0/7 | 1/7 | 1/7 |  |
| CCc1c(CNc2ccc(C(=O)NC(CCC(=O)O)C(=O)O)cc2)cnc2nc(N)nc(N)c12 (stereo not drawn) [5-Et-10-H (5-Et-5-DA)] | 4.50 | 2/8 | 5/8 | 2/8 |  |
| Cc1c(CN(C)c2ccc(C(=O)N[C@@H](CCC(=O)O)C(=O)O)s2)cnc2nc(N)nc(N)c12 [Example C', N-[5-[[(2,4-Diamino-5-methylpyrido[2,3-d]pyrimidin-6-yl)methyl]methylamino]thiophene-2-carbonyl]-L-glutamic Acid] |  |  |  |  | Avg. thickness of rear paws (mm) over days 30-44, Treated (DBA/1 mice; [4]): 2.13 mm; Avg. thickness of rear paws (mm) over days 30-44, Treated (DBA/1 mice; [5]): 2.27 mm; No mice affected on day indicated (visual evidence of inflammation), Day 30 (DBA/1 mice): 0/8; No mice affected on day indicated (visual evidence of inflammation), Day 37 (DBA/1 mice): 1/8; No mice affected on day indicated (visual evidence of inflammation), Day 44 (DBA/1 mice): 3/8 |
| C#CCN(Cc1cnc2nc(N)nc(N)c2c1)c1ccc(C(=O)NC(CCC(=O)O)C(=O)O)cc1 (stereo not drawn) [5-H-10-Propargyl (10-Prgl-5-DA), 10-propargyl-5-deazaaminopterin] | 1.26 | 3/8 | 2/8 | 6/8 |  |
| C=CCN(Cc1cnc2nc(N)nc(N)c2c1C)c1ccc(C(=O)NC(CCC(=O)O)C(=O)O)cc1 (stereo not drawn) [5-Me-10-Allyl (5-Me-10-Allyl-5-DA)] |  | 0/8 | 0/8 | 0/8 |  |
| Cc1c(CN(C)c2ccc(C(=O)NC(CCC(=O)O)C(=O)O)cc2)cnc2nc(N)nc(N)c12 (stereo not drawn) [5-Me-10-Me (5-Me-5-DMTX), 5-methyl-5-deazamethotrexate] | 2.79 | 1/8 | 4/8 | 5/8 |  |
| Nc1nc(N)c2cc(CNc3ccc(C(=O)N[C@@H](CCC(=O)O)C(=O)O)cc3)cnc2n1 [L-5-deazaaminopterin] |  |  |  |  | potency as inhibitor compared with methotrexate [2]: equipotent with methotrexate; in vivo potency compared with methotrexate (P388 leukemia): equipotent with methotrexate; in vivo potency compared with methotrexate (L1210): equipotent with methotrexate; potency as inhibitor compared with methotrexate [3]: equipotent with methotrexate |
| C#CCN(Cc1cnc2nc(N)nc(N)c2c1C)c1ccc(C(=O)NC(CCC(=O)O)C(=O)O)cc1 (stereo not drawn) [5-Me-10-Propargyl (5-Me-10-Prgl-5-DA), 10-propargyl-5-methyl-5-deazaaminopterin] | 21.18 | 3/8 | 3/8 | 2/8 | Ave. thickness of rear paws (mm) over days 30-44, Treated (DBA/1 mice; 30 day measurement (first value in parentheses)): (2.29-2.29) mm; Ave. thickness of rear paws (mm) over days 30-44, Treated (DBA/1 mice; 44 day measurement (second value in parentheses)): (2.29-2.29) mm |
| CCCc1c(CNc2ccc(C(=O)N[C@@H](CCC(=O)O)C(=O)O)cc2)cnc2nc(N)nc(N)c12 [5-Pr-10-H (5-Pr-5-DA), N-[4-[[(2,4-Diamino-5-propylpyrido[2,3-d]pyrimidin-6-yl)methyl]amino]benzoyl]-L-glutamic Acid] | 1.78 | 0/7 | 0/7 | 0/7 |  |
| CN(Cc1cnc2nc(N)nc(N)c2n1)c1ccc(C(=O)N[C@@H](CCC(=O)O)C(=O)O)cc1 [MTX, methotrexate, reference compound] | 1.00 | 1/22 | 1/22 | 6/22 | Avg. thickness of rear paws (mm) over days 30-44, Treated (DBA/1 mice; [4]): 2.128 mm; Avg. thickness of rear paws (mm) over days 30-44, Treated (DBA/1 mice; [5]): 2.34 mm; No mice affected on day indicated (visual evidence of inflammation), Day 30 (DBA/1 mice): 1/22; No mice affected on day indicated (visual evidence of inflammation), Day 37 (DBA/1 mice): 1/22; No mice affected on day indicated (visual evidence of inflammation), Day 44 (DBA/1 mice): 6/22; effectiveness of prophylactic regimen (DBA/1 mice; drug begun two days prior to administration of antigen versus starting drug at day 19): more effective than starting drug at day 19 |
| Cc1c(CNc2ccc(C(=O)N[C@@H](CCC(=O)O)C(=O)O)s2)cnc2nc(N)nc(N)c12 [Example B', N-[5-[[(2,4-Diamino-5-methylpyrido[2,3-d]pyrimidin-6-yl)methyl]amino]thiophene-2-carbonyl]-L-glutamic Acid] |  |  |  |  | Avg. thickness of rear paws (mm) over days 30-44, Treated (DBA/1 mice; [4]): 2.19 mm; Avg. thickness of rear paws (mm) over days 30-44, Treated (DBA/1 mice; [5]): 2.33 mm; No mice affected on day indicated (visual evidence of inflammation), Day 30 (DBA/1 mice): 0/5; No mice affected on day indicated (visual evidence of inflammation), Day 37 (DBA/1 mice): 2/5; No mice affected on day indicated (visual evidence of inflammation), Day 44 (DBA/1 mice): 2/5 |
| CCc1c(CN(C)c2ccc(C(=O)N[C@@H](CCC(=O)O)C(=O)O)s2)cnc2nc(N)nc(N)c12 [Example D', N-[5-[[(2A-Diamino-5-ethylpyrido[2,3d] -pyrimidin-6-yl)methyl]methylamino]thiophene-2-carbonyl]-L-glutamic Acid] |  |  |  |  | Avg. thickness of rear paws (mm) over days 30-44, Treated (DBA/1 mice; [4]): 2.13 mm; Avg. thickness of rear paws (mm) over days 30-44, Treated (DBA/1 mice; [5]): 2.32 mm; No mice affected on day indicated (visual evidence of inflammation), Day 30 (DBA/1 mice): 2/8; No mice affected on day indicated (visual evidence of inflammation), Day 37 (DBA/1 mice): 4/8; No mice affected on day indicated (visual evidence of inflammation), Day 44 (DBA/1 mice): 7/8 |
| Cc1c(CNc2ccc(C(=O)NC(CCC(=O)O)C(=O)O)cc2)cnc2nc(N)nc(N)c12 (stereo not drawn) [5-Me-10-H (5-Me-5-DA), 5-methyl-5-deazaaminopterin] | 4.39 |  | 2/8 | 6/8 |  |
| CC(Cc1cnc2nc(N)nc(N)c2c1)c1ccc(C(=O)NC(CCC(=O)O)C(=O)O)cc1 (stereo not drawn) [10-Me-5,10-Dideazaaminopterin] | 2.69 |  |  |  |  |
| CCCCc1c(CNc2ccc(C(=O)N[C@@H](CCC(=O)O)C(=O)O)cc2)cnc2nc(N)nc(N)c12 [Compound 5-Bu-10-NH] | 7.20 |  |  |  |  |
